14 compounds from PubChem BioAssay (NCI) can be followed below.

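Step 1: Grow cells in 96-well plates. Step 2: Expose to compound for 48 hours at 5 concentrations. Step 3: Interpolate endpoints linearly; if unreached, use highest concentration. GI50: concentration for 50% inhibition of growth. TGI marks complete inhibition of growth.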

Test systems include UACC-62 melanoma; SNB-19 CNS; HL-60(TB) leukemia; SF-295 CNS; HT29 colon; MCF7 breast; NCI-H522 lung; MDA-N; DU-145 prostate; TK-10 renal.
Holding throughout (test): growth of human tumour cells (NCI), 48 h

Regarding `CNC(=O)OCc1c(CO)nc(SC)n1C`, the TGI in the assay on UACC-62 melanoma, with SNB-19 CNS, in the assay on HL-60(TB) leukemia, in the assay on SF-295 CNS, in the assay on HT29 colon and in the assay on MCF7 breast was more than 100 µM in each case. Moreover, the TGI in the assay with NCI-H522 lung was more than 100 µM.

As to `CC1=NN(c2cccc(Cl)c2)C2(SCC(=O)N2c2nc3ccccc3s2)/C1=C\c1cccs1` (stereo unspecified), the TGI in the assay on HL-60(TB) leukemia is 56 µM; with SF-295 CNS, 78.3 µM; with HT29 colon, 46.6 µM; in the assay on MCF7 breast, more than 100 µM; in the assay on MDA-N it was 52.4 µM; with DU-145 prostate it was more than 100 µM. The TGI is 61.8 µM in the assay on NCI-H522 lung and 80.6 µM with TK-10 renal.

Consider `Fc1ccc(C(OCCN2CCC3CCC(C2)N3C/C=C/c2ccco2)c2ccc(F)cc2)cc1` (stereo unspecified), for which the TGI was 26.7 µM in the assay on UACC-62 melanoma; 32.8 µM with SNB-19 CNS; 27.7 µM in the assay on SF-295 CNS; 22.7 µM in the assay on MCF7 breast; 25.9 µM in the assay on MDA-N; 34.6 µM in the assay with DU-145 prostate. The results for the TGI with NCI-H522 lung and with TK-10 renal were 20.5 µM and 21.5 µM, respectively.

As to `COc1cccc2c1Cc1cc(-c3ccccc3)[n+](C)n1-2`, the TGI in the assay with UACC-62 melanoma was 30.3 µM; in the assay on SNB-19 CNS, more than 100 µM; with HL-60(TB) leukemia, 44.9 µM; in the assay with SF-295 CNS, more than 100 µM; with HT29 colon, 32 µM; in the assay with MCF7 breast it was 5.53 µM. The TGI is 26 µM with MDA-N, more than 100 µM in the assay on DU-145 prostate, more than 100 µM in the assay with NCI-H522 lung and more than 100 µM in the assay on TK-10 renal.

Take `COc1cc2c(ccc3c4cc(OC)c(OC)cc4c[n+](C)c23)cc1O`: the TGI in the assay with UACC-62 melanoma was 11.5 µM; in the assay on SNB-19 CNS, 32.4 µM; with HL-60(TB) leukemia, more than 75 µM; in the assay on SF-295 CNS, 54.9 µM; with HT29 colon, more than 75 µM; in the assay with MCF7 breast, more than 75 µM. In the assay on NCI-H522 lung, this compound had a TGI of 1.86 µM.

In the case of `Cc1nn(-c2ccccc2)c(C)c1/C=N/N=C1\SCC(=O)N1c1ccccc1`, the TGI in the assay with UACC-62 melanoma was 68.3 µM; with SNB-19 CNS, more than 100 µM; in the assay on HL-60(TB) leukemia, 82.2 µM; with SF-295 CNS, 53.5 µM; in the assay with HT29 colon, 73.9 µM; with MCF7 breast it was more than 100 µM. The TGI in the assay on MDA-N was 59.6 µM; with DU-145 prostate it was more than 100 µM; with TK-10 renal, 93.4 µM.

Regarding `CCC1CN(C(=O)c2ccccc2)C(Cc2c[nH]c3ccccc23)C(=O)C1CC(=O)OC` (stereo unspecified), the TGI in the assay on UACC-62 melanoma, in the assay with HL-60(TB) leukemia, in the assay with SF-295 CNS, in the assay on HT29 colon, in the assay on MCF7 breast and in the assay with DU-145 prostate was more than 100 µM throughout. Moreover, the TGI in the assay on NCI-H522 lung and in the assay with TK-10 renal was more than 100 µM throughout.

With `CCCNC(=O)CCC(C)C1CCC2C3C(C[C@H](OC(C)=O)[C@]12C)[C@@]1(C)CCC2(C[C@H]1C[C@H]3OC(C)=O)OOC1(CC[C@]3(C)C4C[C@H](OC(C)=O)[C@]5(C)C(C(C)CCC(=O)NCCC)CCC5C4[C@H](OC(C)=O)C[C@@H]3C1)OO2` (stereo partly specified), in the assay on UACC-62 melanoma, the GI50 was more than 67 µM. The TGI in the assay on UACC-62 melanoma, in the assay on SNB-19 CNS, in the assay with HL-60(TB) leukemia, with SF-295 CNS, with HT29 colon and in the assay with MCF7 breast was more than 100 µM each time. Further, the TGI in the assay on MDA-N, with DU-145 prostate, with NCI-H522 lung and with TK-10 renal was more than 100 µM in each case.

As to `Nc1cccc(/C=C/C(=O)N2CCN(CCOC(c3ccccc3)c3ccccc3)CC2)c1`, the TGI in the assay on UACC-62 melanoma was found to be 29.6 µM; in the assay on SNB-19 CNS, 32.4 µM; in the assay with HL-60(TB) leukemia, 32 µM; with SF-295 CNS it was 32.1 µM; in the assay with HT29 colon, 21.6 µM; in the assay on MCF7 breast, 31.5 µM. Besides, the TGI came out at 35.9 µM with MDA-N, 28.5 µM with DU-145 prostate, 28.7 µM in the assay on NCI-H522 lung and 28.3 µM in the assay with TK-10 renal.

As to `COc1cc2c(cc1O)CC[C@@H]1[C@@H]2CC[C@]2(C)[C@@H](OCCN(C)C)CC[C@@H]12`, the GI50 in the assay on UACC-62 melanoma is 0.128 µM; in the assay on SNB-19 CNS, 0.777 µM; with HL-60(TB) leukemia, 0.1 µM; with HT29 colon, 0.158 µM; with MCF7 breast, 0.17 µM; in the assay on DU-145 prostate it was 0.182 µM. The GI50 is 0.341 µM in the assay on NCI-H522 lung and 0.932 µM with TK-10 renal. Further, the TGI was 0.363 µM in the assay with UACC-62 melanoma; 5.14 µM in the assay on SNB-19 CNS; 0.232 µM in the assay on HL-60(TB) leukemia; 0.568 µM with HT29 colon; 0.884 µM with MCF7 breast; 5.35 µM in the assay on DU-145 prostate. The TGI was 1.3 µM in the assay on NCI-H522 lung and 2.81 µM in the assay on TK-10 renal.

Consider `O=C(OCN1C(=O)C2C3C=CC(C2C1=O)C1C2C(=O)N(COC(=O)C4CCCN4)C(=O)C2C31)C1CCCN1` (stereo unspecified), for which the TGI is more than 100 µM in the assay on UACC-62 melanoma; more than 100 µM in the assay with SNB-19 CNS; 43.6 µM in the assay with HL-60(TB) leukemia; more than 100 µM with SF-295 CNS; more than 100 µM in the assay with HT29 colon; more than 100 µM with NCI-H522 lung. In the assay on TK-10 renal, the TGI is more than 100 µM.

As for `CCOC(=O)C1=NN(c2ccc(C)cc2)C2=CC(C)=NN(C)C(=S)N21`, the TGI with UACC-62 melanoma, in the assay on SNB-19 CNS, in the assay on HL-60(TB) leukemia, in the assay with SF-295 CNS, with HT29 colon and with MDA-N was more than 100 µM in each case. In addition, the TGI in the assay with DU-145 prostate was more than 100 µM; in the assay on NCI-H522 lung, 36.5 µM; in the assay with TK-10 renal, more than 100 µM.

With `[N-]=[N+]=CC(=O)c1ccccc1C#CCCc1ccccc1`, the TGI is 69.8 µM in the assay on UACC-62 melanoma; more than 100 µM in the assay with SNB-19 CNS; 32.9 µM with HL-60(TB) leukemia; more than 100 µM in the assay with SF-295 CNS; 36.7 µM in the assay on HT29 colon; 30.9 µM in the assay with NCI-H522 lung. For the same compound, in the assay on TK-10 renal, the TGI is more than 100 µM.

On to `NCCCCc1cc(O)c2c(c1O)C(=O)c1ccccc1C2=O`, for which the TGI in the assay on UACC-62 melanoma worked out at 32.6 µM; in the assay on SNB-19 CNS, 29.2 µM; in the assay with SF-295 CNS, 28.6 µM; in the assay on HT29 colon, 16.7 µM; with MCF7 breast it was 27.4 µM; with MDA-N it was 28.6 µM. The TGI in the assay on DU-145 prostate came to 26.8 µM; in the assay on NCI-H522 lung it was 23.7 µM; in the assay with TK-10 renal, 34 µM.
